{"source": "patent US20210267239A1", "about": "“Process for Sanitizing and Preserving Foodstuffs and Beverages” (LANXESS Deutschland GmbH, priority 2018, published 2021)", "assay_type_in_all_cases": "cell-based", "key": {"[1]": {"test_system": "mixture of Saccharomyces cerevisiae, Zygosaccharomyces bailii, Penicillium carneum and Trichoderma virens", "test": "MIC determination in contaminated iced tea, non-carbonated", "conditions": "168 h, mixed test microbes, 250 cfu/ml each, after one week, read-out: MIC (mg/l) after one week", "procedure": "(§1) After one week, a proportion of the medium was tested for the presence of microorganisms and these tests were used to determine the MIC (minimum inhibitory concentration). Individual test substances: natamycin, mycosamine Test microbe: mixture of Saccharomyces cerevisiae, Zygosaccharomyces bailii, Penicillium carneum and Trichoderma virens Substrate: iced tea, non-carbonated Microbial seeding per ml of substrate: 250 cfu/ml each of the test microbes listed above Synergism was ascertained according to the method described in Kull, F. C. et al.; Mixtures of quaternary ammonium compounds and long-chain fatty acids as antifungal agents. Applied Microbiology, 9, 538-541, 1961. The following relationships apply: QA/Qa+QB/Qb=SI Qa=concentration of substance A which is the MIC Qb=concentration of substance B which is the MIC QA=concentration of substance A in the concentration of A/B at which microbial growth is suppressed QB=concentration of substance B in the concentration of A/B at which microbial growth is suppressed SI=synergistic index […]"}, "Candida krusei": {"test_system": "Candida krusei", "test": "MIC determination in RPMI-1640 growth medium (CLSI M27-A3)", "conditions": "Pichia kudriavzevii, 168 h, growth medium RPMI-1640, seeding 1000 cfu/ml, after one week, read-out: MIC (mg/l) after one week", "procedure": "as §1, with “Candida krusei” for “mixture of Saccharomyces cerevisiae, Zygosaccharomyces bailii, Penicillium carneum and Trichoderma virens”, “growth medium” for “iced tea, non-carbonated”, “1000” for “250”, “cfu/ml” for “cfu/ml each of the test microbes listed above”"}, "Candida glabrata": {"test_system": "Candida glabrata", "test": "MIC determination in RPMI-1640 growth medium (CLSI M27-A3)", "conditions": "Nakaseomyces glabratus, 168 h, growth medium RPMI-1640, seeding 1000 cfu/ml, after one week, read-out: MIC (mg/l) after one week", "procedure": "as §1, with “Candida glabrata” for “mixture of Saccharomyces cerevisiae, Zygosaccharomyces bailii, Penicillium carneum and Trichoderma virens”, “growth medium” for “iced tea, non-carbonated”, “1000” for “250”, “cfu/ml” for “cfu/ml each of the test microbes listed above”"}, "Candida albicans": {"test_system": "Candida albicans", "test": "MIC determination in RPMI-1640 growth medium (CLSI M27-A3)", "conditions": "168 h, growth medium RPMI-1640, seeding 1000 cfu/ml, after one week, read-out: MIC (mg/l) after one week", "procedure": "After one week, a proportion of the growth medium was tested for the presence of microorganisms and these tests were used to determine the MIC (minimum inhibitory concentration). Individual test substances: natamycin, mycosamine Test microbe: Candida albicans Substrate: growth medium Microbial seeding per ml of substrate: 1000 cfu/ml Synergism was ascertained according to the method described in Kull, F. C. et al.; Mixtures of quaternary ammonium compounds and long-chain fatty acids as antifungal agents. Applied Microbiology, 9, 538-541, 1961. The following relationships apply: QA/Qa+QB/Qb=SI Qa=concentration of substance A which is the MIC Qb=concentration of substance B which is the MIC QA=concentration of substance A in the concentration of A/B at which microbial growth is suppressed QB=concentration of substance B in the concentration of A/B at which microbial growth is suppressed SI=synergistic index […]"}}, "data": [{"smiles": "C[C@@H](O)[C@@H](O)[C@H](N)[C@H](O)C=O", "note": "[Mycosamine, 3-amino-3,6-dideoxymannose]", "values": [{"measurement": "MIC", "setting": "[1]", "result": 0.75, "unit": "mg/L"}, {"measurement": "MIC", "setting": "Candida krusei", "result": 2, "unit": "mg/L"}, {"measurement": "MIC", "setting": "Candida glabrata", "result": 0.5, "unit": "mg/L"}, {"measurement": "MIC", "setting": "Candida albicans", "result": 32, "unit": "mg/L"}]}, {"smiles": "C[C@@H]1C/C=C/C=C/C=C/C=C/[C@H](O[C@@H]2O[C@H](C)[C@@H](O)[C@H](N)[C@@H]2O)C[C@@H]2O[C@](O)(C[C@@H](O)C[C@H]3O[C@@H]3/C=C/C(=O)O1)C[C@H](O)[C@H]2C(=O)O", "note": "[Natamycin, (8E,14E,16E,18E,20E)-(1R,3S,5R,7R,12R,22R,24S,25R,26S)-22-(3-amino-3,6-dideoxy-25-D-mannopyranosyloxy)-1,3,26-trihydroxy-12-methyl-10-oxo-6,11,28-trioxatricyclo[22.3.1.05,7]octacosa-8,14,16,18,20-pentaene-25-carboxylic acid]", "values": [{"measurement": "MIC", "setting": "[1]", "result": 4, "unit": "mg/L"}, {"measurement": "MIC", "setting": "Candida krusei", "result": 2, "unit": "mg/L"}, {"measurement": "MIC", "setting": "Candida glabrata", "result": 1, "unit": "mg/L"}, {"measurement": "MIC", "setting": "Candida albicans", "result": 1, "unit": "mg/L"}]}]}
